Laboratory results: patent US6420391B1, “Fused thiophone derivatives and drugs containing the same as the active ingredient” (Ono Pharmaceutical Co., Ltd., priority 1998, dated 2002)
Where a name gives a salt, the structure may show the parent alone.

Experiments:
Type in all cases: cell-based
[1] = system: A549 cells (human lung epithelial cell line); assay: Cellular toxicity in A549 cells (MTT); details: at 10 μM
Description: (§1) (1) Assaying Inhibitory Activity on IL-6 Production and Cellular Toxicity
(§2) 1.5×10^4 of A549 cells (human lung epithelial cell line) were suspended in dalbeco-modified eagle medium (DMEM) containing 0.5% fetus bovine serum (abbreviated as FBS)˜(100 μl) and incubated in 96 well-microplate over day and night. The test compound dissolved in various kinds of solvents at various concentrations (20 μl) and Tumor Necrosis Factor-α (TNF-α (Genzyme Co, Cat. No. TNF-H)) dissolved in DMEM at the concentration of 12.5 ng/ml (80 μl) were added thereto. After incubation for 24 hours, the supernatant (200 μl) was recovered to assay the quantity of IL-6 using Enzyme Linked Immuno […] Assay (ELISA) Method (R&D Systems Co., Cat. No. D6050), to calculate inhibitory activity of the test compound and determine 50% inhibitory concentration (IC50). To the cells from which the supernatant was removed, a solution of brom 3-(4,5-dimethyl-2-thiazolyl)-2,5-diphenyl-2H-tetrazolinium (abbreviated as MTT (Dojin Chemical Laboratory, Cat. No. 345-01821)) dissolved in DMEM containing 10% FBS at the concentration of 0.5 mg/ml (100 μl) was added and incubated for 3 hours. After removing MTT solution, methanol (100 μl) was added thereto. After lyse the cells, the intensity of absorbance on 570 nm as a control of 690 nm was determined to assay cellular toxicity of the test compound.

[2] = system: IL-6 production in A549 cells (human lung epithelial cell line); assay: Inhibitory activity on IL-6 production (TNF-α-stimulated A549 cells, ELISA); details: TNF-α stimulation, incubation for 24 hours, IL-6 in supernatant by ELISA
Description: as §1, §2

[3] = system: IL-12 production in peripheral monocyte prepared from healthy human blood; assay: Inhibitory activity on IL-12 production (IFN-γ/LPS-stimulated peripheral monocyte, ELISA); details: IFN-γ 24 hours then LPS 20 hours, IL-12 in supernatant by ELISA
Description: (§3) (2) Assaying Inhibitory Activity on IL-12 Production and Cellular Toxicity
(§4) 2.0×10^5 of peripheral monocyte prepared from healthy human blood by Ficole gravity centrifugation method (Pharmacia Biotech Co, Cat. No. 17-1440-02) were suspended in RPMI1640 medium containing 10% FBS (170 μl). The test compound dissolved in various kinds of solvents at the various concentrations (10 μl) and 6000 units/ml of Interferon-γ (IFN-γ (Serotec Co, Cat. No. PHP050)) (10 μl) dissolved in RPMI1640 medium containing 10% FBS. After incubation for 24 hours in 96 well-microplate, lipopolysaccharide (6 μg/ml) dissolved in RPMI1640 medium containing 10% FBS (LPS (Difco Co., Cat. No. 3120-25-0)) (10 μl) was added thereto. After incubation for 20 hours, the supernatant (150 μl) was recovered to assay the quantity of IL-12 using ELISA Method (R&D Systems Co, Cat. No. D1200), calculate for inhibitory activity of the test compound and determine 50% inhibitory concentration (IC50) (see J. Exp. Med., 183, 147 (1996)). To the cells from which the supernatant (150 μl) was removed, a solution of MTT dissolved in RPMI1640 medium containing 10% FBS at 1 mg/ml (50 μl) was added and incubated for 3 hours. 2-Propanol containing 0.04N HCl (100 μl) was added thereto. After lyse the cells, the intensity of absorbance on 570 nm as a control of 690 nm was determined to assay cellular toxicity of the test compound.

[4] = system: peripheral monocyte prepared from healthy human blood; assay: Cellular toxicity in peripheral monocyte (MTT); details: at 1 μM
Description: as §3, §4

SMILES	cellular toxicity [1]	IC50 [2]	IC50 [3]	cellular toxicity [4]
O=S1(=O)CC(S(=O)(=O)c2ccccc2)c2c(OCc3cccnc3)cccc21 (stereo not shown) [Example 20(4) free compound, 4-(Pyridin-3-ylmethyl) oxy-3-phenylsulfonyl-2,3-dihydro-1,1-dioxidebenzo[b]thiophene]	no cellular toxicity	4.4 µM	–	–
O=S1(=O)CC(S(=O)(=O)c2ccccc2)c2c(OCc3cccnc3)cccc21 (stereo not shown) [Example 20(4) hydrochloride, 4-(Pyridin-3-ylmethyl) oxy-3-phenylsulfonyl-2,3-dihydro-1,1-dioxidebenzo[b]thiophene]	–	–	110 nM	no cellular toxicity
